Test results from US20130102645A1, “Methods and compositions for controlling vascularization in ophthalmological and dermatological diseases” (AVIENNE PHARMACEUTICALS GMBH, priority 2011, published 2013).
Values after ≈ are worked out from the molar mass of the structure shown. “Also recorded” adds a separate entry of the source. Like-named read-outs stand apart in the source and are kept apart here. Blank lines part the entries; values can stand above or below the compound they belong to.

Assays:
endothelial cell lines = assay: proliferation assay of primary endothelial cells, direct cell counting; assay type: cell-based, human
Experimental: Primary endothelial cell lines (HMVEC-dLyAd—human dermal lymphatic microvascular endothelial cells (EC), dermal blood microvascular EC, HMVEC-LB lung blood microvascular EC, HMVEC-C cardiac human microvascular endothelial cells and MVEC-d—dermal microvascular EC) are from Cambrex Bio Science (Cambrex Bio Science Walkersville Inc., Walkersville, Md., USA). Cell lines are cultured according to the manufacturer's recommendations.
For proliferation assays, cells are seeded in 24- to 96-well plates in medium at different concentrations according to the cell type. After 24 hours, the medium is removed and replaced with fresh medium containing increasing concentrations of the compounds. The plates are then incubated for additional 24 to 72 hours, depending on the type of the experiment. Cells are then trypsinized and collected for direct counting. Results are plotted and expressed as means (±SE) for each compound and for a given concentration.

MDA-MB-435 = assay: cytotoxic activity in breast cancer cell line; assay type: cell-based; conditions: up to 20 μM
solubility = assay type: physicochemical
Experimental: Sufficiently concentrated solutions are readily achievable. AV-398 is soluble in PBS 7.4 at 100 μg/ml, in Tris.Cl buffer at 1 mg/ml, and as a sodium salt at least up to 20 mg/ml.

[1] = rat pharmacokinetics, plasma LC-MS/MS; assay type: in vivo; conditions: for half-life: iv, 5 mg/kg
Experimental: (§1) Preliminary pharmacokinetic and preliminary toxicology information was obtained following a single intravenous dose of 5 mg/kg and a single 20 mg/kg PO dose to male Sprague-Dawley rats for 5 separate test articles. AV-398 was dosed both via the IV and PO routes. Blood was collected from the animals in Groups 1 through 10 for pharmacokinetic analysis. Approximately 0.25 mL of blood was collected in potassium EDTA tubes via the jugular cannulae for all time points. For all IV treated animals, blood was collected at 9 time points (0.083, 0.25, 0.5, 1, 2, 4, 6, 8 and 12 hour post-dose) via the jugular cannulae. For all animals treated by oral gavage, blood was collected at 7 time points (0.5, 1, 2, 4, 6, 8 and 12 hour post-dose) via the jugular cannulae. At the final time point additional blood volume was collected in a separate EDTA tube from each animal for clinical pathology evaluation (including serum chemistry and hematology). Predose samples were collected from the extra animals which were not assigned to any of the dose groups. The plasma samples were analyzed by LC-MS/MS to determine the plasma concentrations of drug candidates. Pharmacokinetic analysis of the plasma concentration data was conducted using non-compartmental analysis with WinNonlin Version 4.1. […] The oral absorption of AV-398 when administered at 20 mg/kg dose as a suspension was low at an average of 8.4%.

ocular angiogenesis = assay: conjunctival incision angiogenesis model in pigs, eye drops; assay type: in vivo, pig
Excerpt: AV-398 inhibits ocular angiogenesis in vivo in a widely accepted large animal model. The cornea is an ideal model system for angiogenesis in general, and more specifically for angiogenesis of the eye. The corneal angiogenesis assay is one of the most widely used in vivo assay for the evaluation of factors influencing angiogenesis (Auerbach R, 2003, Thiele W, 2006). One reason that makes the cornea an ideal object for observing neovascularization is its normal lack of vascularity, maintained by different molecular mechanisms. New vessels can easily be identified by visual inspection alone and quantified with the help of computerized image analysis programs. The effect of an ophthalmological formulation of AV-398 after a conjunctival insult with subsequent angiogenesis in a large animal model was investigated in order to test whether the in vitro data, such as anti-proliferative effects on human endothelial cells, could be reproduced in vivo.
Six white pigs weighing 10 to 15 kg were included. First, corneae and conjunctivae were anaesthesized by local application of lidocaine 4%. Then, an incision of 0.5 cm length through the conjunctival tunica sclerae to the substantia propria was placed in parallel to the dorsal corneal limbus at a distance of approximately 2 mm. The animals were treated as follows. The right eye of each animal was treated with a commercially available ocular eye drop solution (PROTAGENT® EYE DROPS 2%) containing 100 μg/ml of AV-398. The corresponding left eyes of each animal were control-treated with the same eye drop solution alone. Two droplets (˜100 μl) of AV-398 were applied in the right eye immediately after setting of the incision and two droplets of the ophthalmologic carrier formula as negative control in the left eye of the same animal. Animals received AV-398 as well as the eye drops 0.5 hrs post incision and the same treatment at 3 hrs post incision.

[2] = system: SAOS-2, Hela, HT29, U87MG and SK-N-DZ cells; assay: cytotoxic activity in cancer cell lines by cell numbers; assay type: cell-based; conditions: up to 20 μM; uncoated dishes or coated with vitronectin or fibrinogen
Experimental: For example, cytotoxic activity of AV-398 was determined in several cancer cell lines (SAOS-2, Hela, HT29, U87MG and SK-N-DZ cells) by assessing cell numbers after treating cell lines with varying concentration of up to 20 μM. Experiments were performed either on uncoated dishes, or on dishes coated with vitronectin or fibrinogen. In addition, tumor cell lines were treated in parallel with echistatin (Gan Z R et al (1998)). […] Similar data were recently published showing cytotoxic activity also only against MDA-MB-435 breast cancer cells (Dayam R et al, 2006).

αvβ3-receptor = αvβ3-receptor (Homo sapiens, UniProt P05106+P06756); conditions: cited from earlier work
Sequence of αvβ3-receptor (P06756 31-889 limits assumed): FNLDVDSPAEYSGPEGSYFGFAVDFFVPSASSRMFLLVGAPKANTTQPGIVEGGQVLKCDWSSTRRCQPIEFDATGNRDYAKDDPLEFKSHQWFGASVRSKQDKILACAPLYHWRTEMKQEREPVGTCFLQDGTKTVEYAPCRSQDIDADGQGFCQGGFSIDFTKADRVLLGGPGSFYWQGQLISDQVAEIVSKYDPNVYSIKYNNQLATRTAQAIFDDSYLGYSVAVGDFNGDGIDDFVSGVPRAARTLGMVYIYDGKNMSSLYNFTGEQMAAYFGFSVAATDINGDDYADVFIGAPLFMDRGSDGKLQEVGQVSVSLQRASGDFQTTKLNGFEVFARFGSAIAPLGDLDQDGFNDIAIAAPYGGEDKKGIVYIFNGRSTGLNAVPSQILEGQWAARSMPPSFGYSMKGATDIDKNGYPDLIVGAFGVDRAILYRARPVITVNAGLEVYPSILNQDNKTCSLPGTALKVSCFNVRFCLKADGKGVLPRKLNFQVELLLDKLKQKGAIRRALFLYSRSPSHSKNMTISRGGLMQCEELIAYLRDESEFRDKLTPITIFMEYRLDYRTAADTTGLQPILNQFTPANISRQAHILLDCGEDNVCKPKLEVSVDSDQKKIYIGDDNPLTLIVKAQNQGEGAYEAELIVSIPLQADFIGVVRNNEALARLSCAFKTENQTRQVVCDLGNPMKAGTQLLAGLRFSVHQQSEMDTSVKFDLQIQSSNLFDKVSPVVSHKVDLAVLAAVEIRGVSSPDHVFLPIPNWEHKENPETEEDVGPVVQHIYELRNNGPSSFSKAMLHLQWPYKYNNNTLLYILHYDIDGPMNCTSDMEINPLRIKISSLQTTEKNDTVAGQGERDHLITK
Sequence of αvβ3-receptor (P06756 891-1048 partner limits assumed): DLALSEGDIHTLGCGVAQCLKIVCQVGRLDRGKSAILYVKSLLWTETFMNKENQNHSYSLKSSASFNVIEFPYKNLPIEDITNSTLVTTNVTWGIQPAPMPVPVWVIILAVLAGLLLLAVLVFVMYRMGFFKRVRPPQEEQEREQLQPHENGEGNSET
Sequence of αvβ3-receptor (P05106 27-788): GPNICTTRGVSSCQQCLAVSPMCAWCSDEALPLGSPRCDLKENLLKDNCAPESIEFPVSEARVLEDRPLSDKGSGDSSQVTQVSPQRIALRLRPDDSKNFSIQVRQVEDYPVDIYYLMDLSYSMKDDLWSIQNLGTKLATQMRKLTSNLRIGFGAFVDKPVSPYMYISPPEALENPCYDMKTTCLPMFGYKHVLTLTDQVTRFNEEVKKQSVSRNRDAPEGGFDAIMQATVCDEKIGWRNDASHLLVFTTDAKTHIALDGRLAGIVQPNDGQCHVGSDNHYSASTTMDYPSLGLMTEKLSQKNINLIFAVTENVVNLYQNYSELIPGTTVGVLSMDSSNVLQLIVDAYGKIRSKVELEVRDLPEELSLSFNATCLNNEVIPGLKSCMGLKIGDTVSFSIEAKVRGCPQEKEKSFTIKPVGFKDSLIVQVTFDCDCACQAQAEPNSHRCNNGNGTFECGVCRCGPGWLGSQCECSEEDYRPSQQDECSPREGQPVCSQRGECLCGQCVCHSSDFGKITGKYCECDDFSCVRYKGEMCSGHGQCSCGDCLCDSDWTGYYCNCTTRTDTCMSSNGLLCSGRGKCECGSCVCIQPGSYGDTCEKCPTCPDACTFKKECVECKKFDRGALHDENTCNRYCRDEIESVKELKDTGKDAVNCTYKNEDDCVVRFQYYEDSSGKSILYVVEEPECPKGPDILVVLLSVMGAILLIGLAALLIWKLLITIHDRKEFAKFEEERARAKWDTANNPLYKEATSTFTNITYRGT

[3] = system: chorioallantoic membrane (CAM) of the developing chicken embryo; assay: chicken egg chorioallantoic membrane (CAM) assay; assay type: in vivo; conditions: applied on CAM day 6 p.f., incubated until day 11 p.f.
Excerpt: Local application of AV-398 inhibits in vivo angiogenesis as evidenced by the chicken egg chorioallantoic membrane model. The chorioallantoic membrane (CAM) of the developing chicken embryo serves as an alternative to the traditional mammalian in vivo models, and further corroborates the findings in pigs described above and has clear relevance for the treatment e.g. dermatological indications linked to neoangiogenesis. AV-398 was applied over 5 days.
Eggs were opened on day 6 post fertilization (p.f.). Substances (200 μl respectively) were applied on the CAM on day 6 p.f. and incubated until day 11 p.f. As a vehicle control, 1% DMSO in PBS (phosphate-buffered saline solution pH 7.4) without AV-398 was used. Eggs were inspected daily by stereo-microscopy and pictures were taken (6× magnification).

[4] = rat clinical pathology (serum chemistry and hematology); assay type: in vivo; conditions: rats, single 5 mg/kg IV or 20 mg/kg PO
Experimental: as §1

HUVEC = assay: growth inhibition of HUVEC cell lines; assay type: cell-based; conditions: Homo sapiens, read-out: IC50 for growth inhibition of HUVECs
Experimental: For proliferation assays, cells are seeded in 24- to 96-well plates in medium at different concentrations according to the cell type. […] Cells are then trypsinized and collected for direct counting. Results are plotted and expressed as means (±SE) for each compound and for a given concentration.
In Table 2, the group “R” is defined as follows: […]

endothelial cells = conditions: read-out: IC50, colony-forming ability of endothelial cells; cited from earlier work

solubility (solubility; Tris.Cl buffer, aqueous buffer): 1000 µg/mL (≈ 2510 µM)
solubility (solubility; as a sodium salt): ≥ 20000 µg/mL
solubility (solubility; pH 7.4, aqueous buffer, PBS 7.4): 100 µg/mL (≈ 251 µM)
oral absorption (average) ([1]; 20 mg/kg as a suspension): 8.4%
peak plasma concentration (average) ([1]; IV 5 mg/kg): 1736.56 ng/mL
time of peak plasma concentration ([1]; IV 5 mg/kg): 0.083 h
peak plasma concentration (mean) ([1]; PO 20 mg/kg suspension): 54.07 ng/mL
AUC(0-inf) ([1]; male, Sprague-Dawley, plasma, IV 5 mg/kg): 690 ng·h/mL
AUC(0-t) ([1]; male, Sprague-Dawley, plasma, PO 20 mg/kg suspension, read-out: average AUC (0-12 hr)): 234 ng·h/mL
half-life ([1]; male, Sprague-Dawley, plasma, IV 5 mg/kg, read-out: Terminal plasma half-life (converted)): 30 min
half-life ([1]; male, Sprague-Dawley, plasma, IV 5 mg/kg, read-out: terminal plasma half-life (range)): 10.8 to 40.8 min
half-life ([1]; male, Sprague-Dawley, plasma, after intravenous administration, read-out: terminal plasma half-life (converted)): 30 min
bleeding surrounding the incision (ocular angiogenesis; immediately after treatment): marked diffuse bleeding
effects on hematological and serum chemistry parameters [4]: no side-related effects
Compound: CCOc1cc(C=C2S/C(=N/c3ccc(C(=O)O)cc3)N(C)C2=O)ccc1O (stereo in doubt) [AV-398, 4-({5-[(E)-1-(3-ethoxy-4-hydroxyphenyl)methylidene]-3-methyl-4-oxo-1,3-thiazolan-2-yliden}amino)benzoic acid]
IC50 (endothelial cell lines; Homo sapiens, Endothelial cell, endothelial cells (lung, lymphatics, umbilical), FIGS. 1-3, read-out: Half-maximal growth inhibition): 400 nM
IC50 (endothelial cell lines; Homo sapiens, endothelial cell lines, read-out: 50% inhibitory concentration): 200 to 500 nM
activity against breast cancer cell line MDA-MB-435 (MDA-MB-435): limited activity
neoangiogenesis on conjunctivae vs control-treated eyes (ocular angiogenesis; eye drops 100 μg/ml, right eye, left eye vehicle): diminished neoangiogenesis
local or systemic adverse side effects (ocular angiogenesis; three weeks post incision): no local or systemic adverse side effects
effects on cancer cell lines (cytotoxic activity) [2]: no meaningful effects
αυβ3 binding affinity (αvβ3-receptor): 240 nM
vascularization of CAM / chicken embryo vs vehicle control [3]: markedly decreased vascularization; also recorded: significant reduction of vascularization
IC50 (HUVEC): < 300 nM

Compound: CC(C)[C@H]1C(=O)N[C@@H](CCCN=C(N)N)C(=O)NCC(=O)N[C@@H](CC(=O)O)C(=O)N[C@H](Cc2ccccc2)C(=O)N1C [Cilengitide, cycloL-Arg-Gly-L-Asp-D-Phe-N [Me] L-Val]
IC50 (endothelial cells): 6700 ± 1200 nM

Compound: echistatin [reference compound]
IC50 (endothelial cell lines; endothelial cells (lung, lymphatics, umbilical), FIGS. 1-3, read-out: Half-maximal growth inhibition): 800 nM
